In US20090012103A1, “SUBSTITUTED HETEROCYCLIC COMPOUNDS” (priority 2007, published 2009):

Each compound was assayed against wild-type human cardiac sodium channel, hNav1.5 (Homo sapiens, UniProt Q14524) (assay: Late INa screening assay (late sodium current, PatchXpress whole cell patch clamp)). Conditions: compound at 10 μM; read-out: Late INa % blk.
Assay type: cell-based

Chain of wild-type human cardiac sodium channel, hNav1.5 (Q14524 whole entry): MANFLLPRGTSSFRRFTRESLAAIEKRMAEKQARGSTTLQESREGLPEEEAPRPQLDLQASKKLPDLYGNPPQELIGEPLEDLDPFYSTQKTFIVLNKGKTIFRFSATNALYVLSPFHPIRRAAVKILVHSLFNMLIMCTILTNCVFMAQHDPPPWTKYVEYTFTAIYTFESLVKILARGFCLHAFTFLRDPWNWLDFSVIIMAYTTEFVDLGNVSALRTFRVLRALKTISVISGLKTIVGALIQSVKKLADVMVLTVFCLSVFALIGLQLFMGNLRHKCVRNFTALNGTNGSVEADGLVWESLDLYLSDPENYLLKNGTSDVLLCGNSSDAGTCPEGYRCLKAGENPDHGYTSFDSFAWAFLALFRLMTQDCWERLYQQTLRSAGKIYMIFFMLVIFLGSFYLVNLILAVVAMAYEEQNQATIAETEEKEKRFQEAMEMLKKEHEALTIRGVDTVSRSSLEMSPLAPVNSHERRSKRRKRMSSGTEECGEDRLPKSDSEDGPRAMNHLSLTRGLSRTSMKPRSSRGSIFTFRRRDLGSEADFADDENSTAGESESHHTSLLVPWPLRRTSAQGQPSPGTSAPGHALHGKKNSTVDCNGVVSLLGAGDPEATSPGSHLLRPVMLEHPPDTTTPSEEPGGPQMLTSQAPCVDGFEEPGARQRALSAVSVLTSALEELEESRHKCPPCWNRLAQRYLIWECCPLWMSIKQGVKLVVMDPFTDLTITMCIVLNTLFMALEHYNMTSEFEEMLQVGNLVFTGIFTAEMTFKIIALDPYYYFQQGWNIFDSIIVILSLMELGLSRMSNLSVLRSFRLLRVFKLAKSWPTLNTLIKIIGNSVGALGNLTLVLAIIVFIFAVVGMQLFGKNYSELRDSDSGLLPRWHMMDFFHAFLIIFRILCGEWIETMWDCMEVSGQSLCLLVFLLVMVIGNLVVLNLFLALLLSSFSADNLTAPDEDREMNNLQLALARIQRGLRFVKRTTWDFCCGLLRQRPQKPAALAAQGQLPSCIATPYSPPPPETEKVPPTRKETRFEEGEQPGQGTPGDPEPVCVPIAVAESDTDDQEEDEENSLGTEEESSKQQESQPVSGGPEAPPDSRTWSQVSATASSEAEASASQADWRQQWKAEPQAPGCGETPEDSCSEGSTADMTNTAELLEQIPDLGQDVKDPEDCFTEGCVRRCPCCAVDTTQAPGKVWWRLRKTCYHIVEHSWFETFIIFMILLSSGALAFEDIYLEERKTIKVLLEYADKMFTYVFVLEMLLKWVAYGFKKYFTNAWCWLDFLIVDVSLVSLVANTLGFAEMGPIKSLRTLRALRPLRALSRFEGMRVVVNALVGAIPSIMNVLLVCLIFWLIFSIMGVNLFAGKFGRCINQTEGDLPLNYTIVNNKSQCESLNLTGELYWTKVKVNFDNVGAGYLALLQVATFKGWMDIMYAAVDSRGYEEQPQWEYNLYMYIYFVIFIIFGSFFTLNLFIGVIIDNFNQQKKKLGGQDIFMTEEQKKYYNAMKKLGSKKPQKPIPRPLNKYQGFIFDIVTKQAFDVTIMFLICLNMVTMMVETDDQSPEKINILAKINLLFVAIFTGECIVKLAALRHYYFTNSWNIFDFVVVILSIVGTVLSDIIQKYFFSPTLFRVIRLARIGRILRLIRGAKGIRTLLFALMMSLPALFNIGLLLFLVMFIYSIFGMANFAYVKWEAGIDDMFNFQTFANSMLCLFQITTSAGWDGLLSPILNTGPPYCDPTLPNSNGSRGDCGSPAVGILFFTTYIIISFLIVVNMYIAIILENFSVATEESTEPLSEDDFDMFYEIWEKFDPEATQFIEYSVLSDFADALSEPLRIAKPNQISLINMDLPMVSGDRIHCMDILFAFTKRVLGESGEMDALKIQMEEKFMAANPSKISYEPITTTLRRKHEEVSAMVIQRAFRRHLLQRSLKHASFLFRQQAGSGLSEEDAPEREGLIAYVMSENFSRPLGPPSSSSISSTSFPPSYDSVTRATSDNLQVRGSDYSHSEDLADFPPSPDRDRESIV

Row | SMILES | inhibition at 10 µM
1 | CC1=C(C(=O)N2CCN(c3ccc(C(=O)O)cc3)CC2)C(c2cccc3ccccc23)C2=C(CCCC2=O)N1 (stereo not shown) [PT-297, 4-(4-(2-methyl-4-(naphthalen-1-yl)-5-oxo-1,4,5,6,7,8-hexahydroquinoline-3-carbonyl)piperazin-1-yl)benzoic acid] | 4.9%
2 | CC1=C(C(=O)OCc2ccccc2)C(c2ccc(C(=O)O)cc2)n2nnnc2N1 (stereo not shown) [PT-299, 4-(6-(benzyloxycarbonyl)-5-methyl-4,7-dihydrotetrazolo[1,5-a]pyrimidin-7-yl)benzoic acid] | 6.7%
3 | CC1=C(C(=O)OCc2ccccc2)C(c2ccc(B(O)O)cc2)n2nnnc2N1 (stereo not shown) [PT-300, 4-(6-(benzyloxycarbonyl)-5-methyl-4,7-dihydrotetrazolo[1,5-a]pyrimidin-7-yl)phenylboronic acid] | 14.4%
4 | O=C1OCc2nc3[nH]ncc3c(-c3cccc4ccccc34)c21 [PT-301, 4-(naphthalen-1-yl)-1H-furo[3,4-e]pyrazolo[3,4-b]pyridin-5(7H)-one] | 21.6%
5 | O=C1OCc2nc3c(cnn3-c3ccccc3)c(-c3cccc4ccccc34)c21 [PT-302, 4-(naphthalen-1-yl)-1-phenyl-1H-furo[3,4-e]pyrazolo[3,4-b]pyridin-5(7H)-one] | 50.4%
6 | COc1cc(Cl)ccc1COC(=O)C1=C(C)Nc2nnnn2C1c1cccc2ccccc12 (stereo not shown) [PT-304, 4-chloro-2-methoxybenzyl 5-methyl-7-(naphthalen-1-yl)-4,7-dihydrotetrazolo[1,5-a]pyrimidine-6-carboxylate] | 63%
7 | COc1cc(Cl)ccc1COC(=O)C1=C(C)Nc2nnnn2C1c1ccccc1Br (stereo not shown) [PT-308, 4-chloro-2-methoxybenzyl 7-(2-bromophenyl)-5-methyl-4,7-dihydrotetrazolo[1,5-a]pyrimidine-6-carboxylate] | 53.4%
8 | CC1=C(C(=O)NNC(=O)Cc2ccccc2)C(c2cccc3ccccc23)n2nnnc2N1 (stereo not shown) [PT-309, 5-methyl-7-(naphthalen-1-yl)-N′-(2-phenylacetyl)-4,7-dihydrotetrazolo[1,5-a]pyrimidine-6-carbohydrazide] | 8.2%
9 | CC1=C(C(=O)NCCc2ccccc2)C(c2cccc3ccccc23)n2nnnc2N1 (stereo not shown) [PT-310, 5-methyl-7-(naphthalen-1-yl)-N-phenethyl-4,7-dihydrotetrazolo[1,5-a]pyrimidine-6-carboxamide] | 23.6%
10 | CC1=C(C(=O)OCc2ccccc2)C(c2ccc(N(C)C)c3ccccc23)n2ncc(C(=O)O)c2N1 (stereo not shown) [PT-311, 6-(benzyloxycarbonyl)-7-(4-(dimethylamino)naphthalen-1-yl)-5-methyl-4,7-dihydropyrazolo[1,5-a]pyrimidine-3-carboxylic acid] | -7.5%
11 | COc1ccc(C2C(C(=O)OCc3ccccc3)=C(C)Nc3c(C(=O)O)cnn32)c2ccccc12 (stereo not shown) [PT-312, 6-(benzyloxycarbonyl)-7-(4-methoxynaphthalen-1-yl)-5-methyl-4,7-dihydropyrazolo[1,5-a]pyrimidine-3-carboxylic acid] | 5.2%
12 | CC1=C(C(=O)OCc2ccccc2)C(c2ccccc2)c2ccccc2N1 (stereo not shown) [PT-321, benzyl 2-methyl-4-phenyl-1,4-dihydroquinoline-3-carboxylate] | 48.3%
13 | CC1=C(C(=O)OCc2ccccc2)C(c2ccccc2)C2=C(CCCC2=O)N1 (stereo not shown) [PT-323, benzyl 2-methyl-5-oxo-4-phenyl-1,4,5,6,7,8-hexahydroquinoline-3-carboxylate] | 48.9%
14 | CC1=C(C(=O)OCc2ccccc2)C(c2cccc3ccccc23)n2nnnc2N1Cc1nnn[nH]1 (stereo not shown) [PT-326, benzyl 4-((1H-tetrazol-5-yl)methyl)-5-methyl-7-(naphthalen-1-yl)-4,7-dihydrotetrazolo[1,5-a]pyrimidine-6-carboxylate] | 39.9%
15 | CC1=C(C(=O)OCc2ccccc2)C(c2ccccc2OCc2ccccc2)C2=C(CCCC2=O)N1 (stereo not shown) [PT-328, benzyl 4-(2-(benzyloxy)phenyl)-2-methyl-5-oxo-1,4,5,6,7,8-hexahydroquinoline-3-carboxylate] | 58.1%
16 | CC1=C(C(=O)OCc2ccccc2)C(c2ccccc2Br)C2=C(CCCC2=O)N1 (stereo not shown) [PT-329, benzyl 4-(2-bromophenyl)-2-methyl-5-oxo-1,4,5,6,7,8-hexahydroquinoline-3-carboxylate] | 54.9%
17 | CC1=C(C(=O)OCc2ccccc2)C(c2ccccc2Br)c2cn[nH]c2N1 (stereo not shown) [PT-330, benzyl 4-(2-bromophenyl)-6-methyl-4,7-dihydro-1H-pyrazolo[3,4-b]pyridine-5-carboxylate] | 21.2%
18 | CCOC(=O)CN1C(C)=C(C(=O)OCc2ccccc2)C(c2cccc3ccccc23)n2nnnc21 (stereo not shown) [PT-331, benzyl 4-(2-ethoxy-2-oxoethyl)-5-methyl-7-(naphthalen-1-yl)-4,7-dihydrotetrazolo[1,5-a]pyrimidine-6-carboxylate] | 29.6%
19 | COc1ccc(C2C(C(=O)OCc3ccccc3)=C(C)Nc3[nH]ncc32)c2ccccc12 (stereo not shown) [PT-333, benzyl 4-(4-methoxynaphthalen-1-yl)-6-methyl-4,7-dihydro-1H-pyrazolo[3,4-b]pyridine-5-carboxylate] | 13.1%

Row | SMILES | inhibition at 10 µM
20 | CC1=C(C(=O)OCc2ccccc2)C(c2c3ccccc3cc3ccccc23)C2=C(CCCC2=O)N1 (stereo not shown) [PT-334, benzyl 4-(anthracen-9-yl)-2-methyl-5-oxo-1,4,5,6,7,8-hexahydroquinoline-3-carboxylate] | 29.9%
21 | CC1=C(C(=O)OCc2ccccc2)C(c2cc3ccccc3s2)C2=C(CCCC2=O)N1 (stereo not shown) [PT-335, benzyl 4-(benzo[b]thiophen-2-yl)-2-methyl-5-oxo-1,4,5,6,7,8-hexahydroquinoline-3-carboxylate] | 58.1%
22 | CC1=C(C(=O)OCc2ccccc2)C(c2ccccc2-c2ccccc2)C2=C(CCCC2=O)N1 (stereo not shown) [PT-336, benzyl 4-(biphenyl-2-yl)-2-methyl-5-oxo-1,4,5,6,7,8-hexahydroquinoline-3-carboxylate] | 60.1%
23 | CC1=C(C(=O)OCc2ccccc2)C(c2cccc3ccccc23)n2nnnc2N1CC#N (stereo not shown) [PT-337, benzyl 4-(cyanomethyl)-5-methyl-7-(naphthalen-1-yl)-4,7-dihydrotetrazolo[1,5-a]pyrimidine-6-carboxylate] | 30.2%
24 | CC1=C(C(=O)OCc2ccccc2)C(c2cnc(N3CCN(C)CC3)s2)n2nnnc2N1 (stereo not shown) [PT-341, benzyl 5-methyl-7-(2-(4-methylpiperazin-1-yl)thiazol-5-yl)-4,7-dihydrotetrazolo[1,5-a]pyrimidine-6-carboxylate] | 23.3%
25 | COc1cc(OC)c(C2C(C(=O)OCc3ccccc3)=C(C)Nc3nnnn32)c(OC)c1 (stereo not shown) [PT-343, benzyl 5-methyl-7-(2,4,6-trimethoxyphenyl)-4,7-dihydrotetrazolo[1,5-a]pyrimidine-6-carboxylate] | 34.4%
26 | CC1=C(C(=O)OCc2ccccc2)C(c2ccccc2-c2ccccc2C)n2nnnc2N1 (stereo not shown) [PT-344, benzyl 5-methyl-7-(2′-methylbiphenyl-2-yl)-4,7-dihydrotetrazolo[1,5-a]pyrimidine-6-carboxylate] | 44.6%
27 | CC1=C(C(=O)OCc2ccccc2)C(c2ccccc2N2CCOCC2)n2nnnc2N1 (stereo not shown) [PT-345, benzyl 5-methyl-7-(2-morpholinophenyl)-4,7-dihydrotetrazolo[1,5-a]pyrimidine-6-carboxylate] | 36.7%
28 | CC1=C(C(=O)OCc2ccccc2)C(c2cnc(N3CCOCC3)s2)n2nnnc2N1 (stereo not shown) [PT-346, benzyl 5-methyl-7-(2-morpholinothiazol-5-yl)-4,7-dihydrotetrazolo[1,5-a]pyrimidine-6-carboxylate] | 23%
29 | CC1=C(C(=O)OCc2ccccc2)C(c2ccc(C(F)(F)F)cc2[N+](=O)[O-])n2nnnc2N1 (stereo not shown) [PT-347, benzyl 5-methyl-7-(2-nitro-4-(trifluoromethyl)phenyl)-4,7-dihydrotetrazolo[1,5-a]pyrimidine-6-carboxylate] | 5.1%
30 | CC1=C(C(=O)OCc2ccccc2)C(c2ccccc2-c2cccc(C(F)(F)F)c2)n2nnnc2N1 (stereo not shown) [PT-349, benzyl 5-methyl-7-(3′-(trifluoromethyl)biphenyl-2-yl)-4,7-dihydrotetrazolo[1,5-a]pyrimidine-6-carboxylate] | 77.3%
31 | CC1=C(C(=O)OCc2ccccc2)C(c2ccccc2-c2cccc(C)c2)n2nnnc2N1 (stereo not shown) [PT-350, benzyl 5-methyl-7-(3′-methylbiphenyl-2-yl)-4,7-dihydrotetrazolo[1,5-a]pyrimidine-6-carboxylate] | 63.2%
32 | CC1=C(C(=O)OCc2ccccc2)C(c2ccc(S(C)(=O)=O)cc2[N+](=O)[O-])n2nnnc2N1 (stereo not shown) [PT-353, benzyl 5-methyl-7-(4-(methylsulfonyl)-2-nitrophenyl)-4,7-dihydrotetrazolo[1,5-a]pyrimidine-6-carboxylate] | 5.8%
33 | CC1=C(C(=O)OCc2ccccc2)C(c2ccccc2-c2ccc(S(C)(=O)=O)cc2)n2nnnc2N1 (stereo not shown) [PT-354, benzyl 5-methyl-7-(4′-(methylsulfonyl)biphenyl-2-yl)-4,7-dihydrotetrazolo[1,5-a]pyrimidine-6-carboxylate] | 64.7%
34 | CC1=C(C(=O)OCc2ccccc2)C(c2ccc(S(C)(=O)=O)cc2)n2nnnc2N1 (stereo not shown) [PT-355, benzyl 5-methyl-7-(4-(methylsulfonyl)phenyl)-4,7-dihydrotetrazolo[1,5-a]pyrimidine-6-carboxylate] | 14.8%
35 | CSc1ccc(C2C(C(=O)OCc3ccccc3)=C(C)Nc3nnnn32)cc1 (stereo not shown) [PT-356, benzyl 5-methyl-7-(4-(methylthio)phenyl)-4,7-dihydrotetrazolo[1,5-a]pyrimidine-6-carboxylate] | 16.4%
36 | CC1=C(C(=O)OCc2ccccc2)C(c2ccc(OC(F)(F)F)cc2)n2nnnc2N1 (stereo not shown) [PT-357, benzyl 5-methyl-7-(4-(trifluoromethoxy)phenyl)-4,7-dihydrotetrazolo[1,5-a]pyrimidine-6-carboxylate] | 19.6%
37 | CC1=C(C(=O)OCc2ccccc2)C(c2ccc(C(F)(F)F)cc2)n2nnnc2N1 (stereo not shown) [PT-358, benzyl 5-methyl-7-(4-(trifluoromethyl)phenyl)-4,7-dihydrotetrazolo[1,5-a]pyrimidine-6-carboxylate] | 7.4%
